{
  "source": "patent US20150148304A1",
  "about": "“Novel Peptides and Analogs for Use in the Treatment of Macrophage Activation Syndrome” (Soligenix, Inc., priority 2013, published 2015)",
  "key": {"[1]": {"experiment": "non-GLP pilot toxicology study in nonhuman primates", "format": "in vivo, cynomolgus monkeys", "details": "90, 180 and 220 mg/kg; NHP; resolved within a few minutes", "protocol": "(§1) Two pilot and 2 definitive repeat-dose toxicity studies were conducted with RIVPA (SEQ ID NO. 5) in mice and cynomolgus monkeys using the intravenous (IV; slow bolus) route of administration.\n(§2) These resolved within a few minutes without detectable residual effects."}, "whole blood": {"test_system": "whole blood", "experiment": "ex vivo LPS stimulation of whole blood from Phase 1 subjects, cytokine/chemokine Activity Ratios", "format": "cell-based, human", "details": "dose range 0.15-2 mg/kg; 4 hours in vitro LPS stimulation of whole blood", "protocol": "In ex vivo investigations using blood samples obtained during the Phase 1 healthy human volunteer study, a number of cytokine and chemokine analytes were quantified after 4 hours of in vitro stimulation of whole blood with LPS. The inter-individual variability in analyte levels was larger than any variation in time or response to RIVPA (SEQ ID NO. 5) or placebo administration and the data were therefore self-normalized using the individual pre-dose analyte level to standardize all responses for each individual subject (the Activity Ratio). RIVPA (SEQ ID NO. 5) effects on the analyte Activity Ratios (ARs) were neither constant throughout time, nor linearly dose responsive."}, "[2]": {"experiment": "Phase 1 study in healthy volunteers, safety (SAD and MAD phases)", "format": "in vivo, human", "from_the_text": "Clinical experience with RIVPA (SEQ ID NO. 5) was obtained in a Phase 1 Study. The primary objective of the study was to determine the maximum tolerated dose (MTD) of single and repeat ascending doses of RIVPA (SEQ ID NO. 5) injectable solution following IV administration in healthy volunteers. The secondary objectives of this study included the assessment of the dose limiting toxicity (DLT), safety, PK and pharmacodynamic (PD) profiles of RIVPA (SEQ ID NO. 5) after single and repeated ascending IV doses of RIVPA (SEQ ID NO. 5). The study was divided into 2 phases: a single-ascending dose (SAD) phase and a multiple-ascending dose (MAD) phase.\nSingle IV doses of RIVPA (SEQ ID NO. 5) were well tolerated up to the maximum tested (8 mg/kg) and daily IV doses were well tolerated up to the maximum tested (6.5 mg/kg for 7 days). There were no dose limiting toxicities (DLTs) and the MTD was not reached in either phase of the trial. There were no deaths and no clinically significant, severe, or serious Adverse Events (AEs) reported during the study.\nThe most frequently reported TEAEs (observed in more than one subject who received RIVPA (SEQ ID NO. 5) and in a higher proportion (%) than placebo subjects) were study treatment procedure-related events (General Disorders and Administration Site Conditions) such as vessel puncture site haematoma, vessel puncture site reaction and vessel puncture site pain. All vessel puncture-related events were mild and determined to be unrelated to study treatment by the QI. The second most frequently reported TEAEs were Nervous System Disorders, specifically headache and dizziness; these events were only mild to moderate. All other TEAEs were reported by only 1 subject at any given dose level (maximum of 3 dose levels).\nThe incidence of “possibly-related” events was also higher in the 2 highest dose levels. However, due to the small sample sizes (4 subjects received active treatment in each cohort), it was not possible to conclude whether the results definitely represented a dose-response. The majority of the TEAEs were not related to study treatment and were mild in severity with only one event reported as moderate. The most frequently reported TEAEs for subjects who received RIVPA (SEQ ID NO. 5) were General Disorders and Administration Site Conditions (i.e., procedure-related events) such as vessel puncture site haematoma, vessel puncture site reaction, and vessel puncture site pain. All vessel puncture-related events were mild and judged to be unrelated to treatment. Increased alanine aminotransferase (ALT) and back pain were reported by 3 (15.0%) subjects who received RIVPA (SEQ ID NO. 5) and these events were observed by only one (10.0%) subject who received the placebo."}, "[3]": {"experiment": "toxicology and PK studies in mice with alternate routes of administration", "details": "mouse, in vivo, other: intraperitoneal or subcutaneous"}, "[4]": {"experiment": "non-GLP pilot toxicology study, single IV administration, mouse", "details": "in vivo, IV injection over 30 to 60 seconds, actual dose, read-out: maximum tolerated dose (MTD) of a single administration", "protocol": "as §1, §2"}, "[5]": {"test_system": "primary human leukemia cells", "experiment": "proliferation of primary leukemia cells in vitro", "format": "cell-based"}, "[6]": {"experiment": "GLP 14-day repeat-dose IV toxicity study in mice", "format": "in vivo, mouse", "protocol": "as §1\nThe safety of multiple daily injections of RIVPA (SEQ ID NO. 5) has also been evaluated in GLP studies in mice and cynomolgus monkeys. In mouse, doses of 20, 60, or 90 mg/kg/day were given IV for 14 days. […] In survivors of all groups, there was no evidence of toxicity in any organ or abnormal biochemistry or hematology.\nIn the latter study, no effect on T-cell, B-cell or NK-cell counts was observed after 14 days of intravenous RIVPA (SEQ ID NO. 5) dosing in the NHP. […] Collectively, there is no indication of a potential for RIVPA (SEQ ID NO. 5) to cause immunotoxicity or non-specific immune activation. No hyperactivation or suppression of adaptive immune responses, or other impact on the phenotypes of cells associated with adaptive immunity, has been detected following RIVPA (SEQ ID NO. 5) administration."}, "[7]": {"experiment": "acute toxicity (respiratory depression) dose levels, mouse", "format": "in vivo", "protocol": "The observed respiratory depression occurred at different dose levels in different species, and was not predicted by allometric scaling. In particular, the mouse appeared to be the most sensitive species with acute toxicity occurring rarely at 60 mg/kg (HED: ˜5 mg/kg) and commonly at 90 mg/kg (HED: ˜7 mg/kg). In contrast in NHP (cynomologus monkey), acute toxicity occurred occasionally at 160 mg/kg (HED: ˜50 mg/kg) and consistently at 240 mg/kg (HED: ˜78 mg/kg)."}},
  "note": "No end group written: not given here.",
  "data": [
    {"substance": "RIVPA-NH2 [RIVPA, L-arginyl-L-isoleucyl-L-valyl-L-prolyl-L-alanine-amide]", "values": [
      {"measurement": "clinical signs during and shortly after dosing", "setting": "[1]", "result": "mild clinical signs"},
      {"measurement": "anti-inflammatory status (higher TNF RII and IL-1ra, lower TNFα and IL-1β)", "setting": "whole blood", "result": "evidence of an increase"},
      {"measurement": "subjects reporting increased alanine aminotransferase (ALT) and back pain", "setting": "[2]; MAD phase, placebo one (10.0%) subject", "result": "3 (15.0%) subjects"},
      {"measurement": "MTD in humans", "setting": "[2]; either phase of the trial, no DLTs", "result": "not reached"},
      {"measurement": "single IV dose well tolerated up to the maximum tested", "setting": "[2]; healthy volunteers, SAD phase", "result": 8, "unit": "mg/kg"},
      {"measurement": "daily IV dose well tolerated up to the maximum tested", "setting": "[2]; healthy volunteers, daily for 7 days, MAD phase", "result": 6.5, "unit": "mg/kg"},
      {"measurement": "NOAEL", "setting": "[3]", "result": "> 200", "unit": "mg/kg"},
      {"measurement": "MTD", "setting": "[4]", "result": 88, "unit": "mg/kg"},
      {"measurement": "proliferation of primary human leukemia cells", "setting": "[5]", "result": "did not promote the proliferation"},
      {"measurement": "adverse effects at 20 mg/kg", "setting": "[6]; 20 mg/kg/day IV for 14 days, mouse", "result": "No adverse effects were observed"},
      {"measurement": "mortality at 60 mg/kg", "setting": "[6]; 60 mg/kg/day IV for 14 days, mouse", "result": "Lethality was also observed in 1 animal"},
      {"measurement": "mortality at high dose", "setting": "[6]; 90 mg/kg/day IV for 14 days, mouse", "result": "Deaths were observed"},
      {"measurement": "immune-related organ weights, histopathology, hematology and clinical chemistry", "setting": "[6]; mouse 14-day toxicity study", "result": "no changes were observed"},
      {"measurement": "HED of dose at which acute toxicity occurs rarely", "setting": "[7]; mouse 60 mg/kg", "result": "~5", "unit": "mg/kg"},
      {"measurement": "HED of dose at which acute toxicity occurs commonly", "setting": "[7]; mouse 90 mg/kg", "result": "~7", "unit": "mg/kg"}
    ]}
  ]
}
